This experiment concerns Rattus norvegicus. Put plainly: Antinociceptive activity in non-injured Sprague-Dawley rat model assessed as paw withdrawal latency at 10 ug/5 uL administered intrathecal after 5 mins by radiant heat assay relative to vehicle-treated control. In kind it is functional.

As to `CCC(=O)N(CC1CCCCN1[C@@H](Cc1ccccc1)C(=O)NCC(=O)N[C@H](C)C(=O)N[C@@H](Cc1c(C)cc(O)cc1C)C(=O)O)c1ccccc1` (stereo partly specified), the Activity is on record as 63%.

The record behind these values is ChEMBL document CHEMBL3751670, “Enkephalin analogues with N-phenyl-N-(piperidin-2-ylmethyl)propionamide derivatives: Synthesis and biological evaluations” (Bioorg Med Chem Lett, 2016).
